Reference: ChEMBL document CHEMBL3991601, “The target landscape of clinical kinase drugs” (Science, 2017)
Active and inactive are the calls of the source. For most assays here, no stated cut-off is given here; in the data, actives have a measured Kd and inactives only a lower limit.

How the values were obtained:
[1] = target: Calcium/calmodulin-dependent protein kinase kinase 2 (Homo sapiens, UniProt Q96RR4)
[2] = target: Dual specificity protein kinase CLK1 (Homo sapiens, UniProt P49759)
[3] = target: Casein kinase I isoform delta (Homo sapiens, UniProt P48730)
[4] = target: T1, Cytochrome c1, heme protein, mitochondrial (Homo sapiens, UniProt P08574)
T1 sequence (P08574 whole entry): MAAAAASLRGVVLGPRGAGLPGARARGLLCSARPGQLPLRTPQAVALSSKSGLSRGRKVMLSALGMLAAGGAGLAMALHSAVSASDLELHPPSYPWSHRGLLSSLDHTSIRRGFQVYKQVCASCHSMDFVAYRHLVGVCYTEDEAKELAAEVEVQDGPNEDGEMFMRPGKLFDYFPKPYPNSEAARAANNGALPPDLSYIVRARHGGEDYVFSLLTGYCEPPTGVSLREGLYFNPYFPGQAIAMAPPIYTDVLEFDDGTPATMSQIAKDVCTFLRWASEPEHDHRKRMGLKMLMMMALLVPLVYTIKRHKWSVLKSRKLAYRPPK

dCTP pyrophosphatase 1 = target: T2, dCTP pyrophosphatase 1 (Homo sapiens, UniProt Q9H773)
T2 sequence (Q9H773 whole entry): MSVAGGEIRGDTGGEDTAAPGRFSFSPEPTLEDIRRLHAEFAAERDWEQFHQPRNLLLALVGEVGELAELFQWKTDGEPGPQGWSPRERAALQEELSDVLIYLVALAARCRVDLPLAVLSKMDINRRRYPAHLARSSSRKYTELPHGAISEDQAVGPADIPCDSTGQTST

[5] = target: Serine/threonine-protein kinase/endoribonuclease IRE1 (Homo sapiens, UniProt O75460)
Chain of Serine/threonine-protein kinase/endoribonuclease IRE1 (O75460 whole entry): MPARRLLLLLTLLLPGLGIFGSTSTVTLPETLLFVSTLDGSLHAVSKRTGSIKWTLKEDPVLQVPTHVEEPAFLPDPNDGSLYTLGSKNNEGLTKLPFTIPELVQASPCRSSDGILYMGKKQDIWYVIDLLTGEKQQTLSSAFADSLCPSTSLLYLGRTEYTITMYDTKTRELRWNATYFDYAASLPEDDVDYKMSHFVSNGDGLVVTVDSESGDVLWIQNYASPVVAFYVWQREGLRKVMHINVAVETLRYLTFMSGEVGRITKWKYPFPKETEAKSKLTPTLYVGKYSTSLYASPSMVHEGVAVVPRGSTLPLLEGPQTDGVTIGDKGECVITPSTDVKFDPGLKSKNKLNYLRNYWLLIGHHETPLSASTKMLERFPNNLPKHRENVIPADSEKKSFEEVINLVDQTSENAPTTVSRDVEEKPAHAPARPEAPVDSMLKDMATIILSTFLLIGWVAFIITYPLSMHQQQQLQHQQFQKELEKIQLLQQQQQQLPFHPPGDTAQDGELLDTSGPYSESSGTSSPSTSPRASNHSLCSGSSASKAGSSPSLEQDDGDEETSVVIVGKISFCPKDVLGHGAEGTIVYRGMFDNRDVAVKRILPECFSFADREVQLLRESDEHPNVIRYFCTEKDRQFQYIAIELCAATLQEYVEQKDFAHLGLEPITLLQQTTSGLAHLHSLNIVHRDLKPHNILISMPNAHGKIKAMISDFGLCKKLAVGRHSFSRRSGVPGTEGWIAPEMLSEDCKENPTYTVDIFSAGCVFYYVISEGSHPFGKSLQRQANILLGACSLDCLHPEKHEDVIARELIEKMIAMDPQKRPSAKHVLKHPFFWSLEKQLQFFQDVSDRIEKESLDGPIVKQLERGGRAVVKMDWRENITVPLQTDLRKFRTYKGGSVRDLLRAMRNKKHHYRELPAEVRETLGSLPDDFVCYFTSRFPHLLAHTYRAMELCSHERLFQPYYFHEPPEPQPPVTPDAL

[6] = target: Glycogen synthase kinase-3 alpha (Homo sapiens, UniProt P49840)
[7] = target: T3, Mitogen-activated protein kinase kinase kinase 2 (Homo sapiens, UniProt Q9Y2U5)
T3 sequence (Q9Y2U5 whole entry): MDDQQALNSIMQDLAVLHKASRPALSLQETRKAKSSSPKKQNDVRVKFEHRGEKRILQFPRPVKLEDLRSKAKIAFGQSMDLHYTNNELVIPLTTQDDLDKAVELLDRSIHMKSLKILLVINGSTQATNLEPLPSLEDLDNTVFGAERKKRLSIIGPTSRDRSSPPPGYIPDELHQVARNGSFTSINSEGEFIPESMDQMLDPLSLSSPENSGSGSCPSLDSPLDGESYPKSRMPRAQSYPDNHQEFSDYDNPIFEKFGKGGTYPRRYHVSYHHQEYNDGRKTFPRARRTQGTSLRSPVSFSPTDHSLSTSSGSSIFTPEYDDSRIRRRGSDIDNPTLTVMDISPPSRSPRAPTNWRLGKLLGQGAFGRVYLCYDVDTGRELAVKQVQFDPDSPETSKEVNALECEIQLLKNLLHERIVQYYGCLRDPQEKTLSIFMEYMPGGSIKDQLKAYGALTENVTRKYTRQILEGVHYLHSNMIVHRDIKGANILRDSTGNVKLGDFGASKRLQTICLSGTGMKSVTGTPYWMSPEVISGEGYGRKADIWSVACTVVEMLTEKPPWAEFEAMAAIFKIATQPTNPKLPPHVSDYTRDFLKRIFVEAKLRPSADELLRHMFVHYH

[8] = target: Mitogen-activated protein kinase kinase kinase 4 (Homo sapiens, UniProt Q9Y6R4)
Chain of Mitogen-activated protein kinase kinase kinase 4 (Q9Y6R4 whole entry): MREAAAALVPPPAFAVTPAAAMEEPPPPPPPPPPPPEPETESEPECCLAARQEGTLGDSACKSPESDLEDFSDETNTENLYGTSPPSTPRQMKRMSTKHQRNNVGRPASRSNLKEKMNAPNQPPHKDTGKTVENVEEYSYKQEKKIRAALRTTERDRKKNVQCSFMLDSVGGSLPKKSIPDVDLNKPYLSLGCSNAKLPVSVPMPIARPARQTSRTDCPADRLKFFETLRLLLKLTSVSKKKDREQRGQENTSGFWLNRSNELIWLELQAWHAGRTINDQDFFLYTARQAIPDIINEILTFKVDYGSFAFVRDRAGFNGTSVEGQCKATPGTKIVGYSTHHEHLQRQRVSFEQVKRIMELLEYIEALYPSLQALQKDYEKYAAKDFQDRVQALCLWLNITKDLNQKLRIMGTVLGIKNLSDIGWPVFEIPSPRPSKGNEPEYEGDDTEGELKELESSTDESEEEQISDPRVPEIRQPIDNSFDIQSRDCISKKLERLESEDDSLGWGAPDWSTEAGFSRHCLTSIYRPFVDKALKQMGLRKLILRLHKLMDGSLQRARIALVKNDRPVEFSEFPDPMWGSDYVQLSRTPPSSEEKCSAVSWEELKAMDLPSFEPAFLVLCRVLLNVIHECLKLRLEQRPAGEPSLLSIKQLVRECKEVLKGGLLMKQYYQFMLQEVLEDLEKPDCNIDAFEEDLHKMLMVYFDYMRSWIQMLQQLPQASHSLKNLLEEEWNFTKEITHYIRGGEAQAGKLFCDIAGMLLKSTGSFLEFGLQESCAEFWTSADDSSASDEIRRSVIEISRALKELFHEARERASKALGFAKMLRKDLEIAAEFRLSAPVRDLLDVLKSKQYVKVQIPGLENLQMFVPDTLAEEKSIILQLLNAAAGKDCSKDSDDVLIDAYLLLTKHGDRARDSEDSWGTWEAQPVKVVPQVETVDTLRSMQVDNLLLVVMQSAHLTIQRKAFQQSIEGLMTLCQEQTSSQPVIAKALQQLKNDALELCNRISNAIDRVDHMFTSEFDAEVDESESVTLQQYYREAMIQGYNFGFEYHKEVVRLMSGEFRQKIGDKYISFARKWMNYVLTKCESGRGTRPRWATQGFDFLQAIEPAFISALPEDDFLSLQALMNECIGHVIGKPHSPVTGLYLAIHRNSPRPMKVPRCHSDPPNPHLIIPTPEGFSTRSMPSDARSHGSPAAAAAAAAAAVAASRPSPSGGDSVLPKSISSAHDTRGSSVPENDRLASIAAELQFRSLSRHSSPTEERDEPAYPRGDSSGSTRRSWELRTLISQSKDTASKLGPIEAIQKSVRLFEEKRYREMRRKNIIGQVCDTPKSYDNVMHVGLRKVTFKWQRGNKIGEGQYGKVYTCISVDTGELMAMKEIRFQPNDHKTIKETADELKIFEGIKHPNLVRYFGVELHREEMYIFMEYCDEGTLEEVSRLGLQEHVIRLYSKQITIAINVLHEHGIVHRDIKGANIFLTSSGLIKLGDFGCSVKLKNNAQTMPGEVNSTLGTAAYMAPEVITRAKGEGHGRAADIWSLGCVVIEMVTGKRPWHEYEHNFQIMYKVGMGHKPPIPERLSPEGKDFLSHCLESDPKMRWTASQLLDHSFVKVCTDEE

[9] = target: Mitogen-activated protein kinase kinase kinase kinase 4 (Homo sapiens, UniProt O95819)
[10] = target: Mitogen-activated protein kinase 14 (Homo sapiens, UniProt Q16539)
[11] = target: T4, Phosphatidylinositol 5-phosphate 4-kinase type-2 alpha (Homo sapiens, UniProt P48426)
T4 sequence (P48426 whole entry): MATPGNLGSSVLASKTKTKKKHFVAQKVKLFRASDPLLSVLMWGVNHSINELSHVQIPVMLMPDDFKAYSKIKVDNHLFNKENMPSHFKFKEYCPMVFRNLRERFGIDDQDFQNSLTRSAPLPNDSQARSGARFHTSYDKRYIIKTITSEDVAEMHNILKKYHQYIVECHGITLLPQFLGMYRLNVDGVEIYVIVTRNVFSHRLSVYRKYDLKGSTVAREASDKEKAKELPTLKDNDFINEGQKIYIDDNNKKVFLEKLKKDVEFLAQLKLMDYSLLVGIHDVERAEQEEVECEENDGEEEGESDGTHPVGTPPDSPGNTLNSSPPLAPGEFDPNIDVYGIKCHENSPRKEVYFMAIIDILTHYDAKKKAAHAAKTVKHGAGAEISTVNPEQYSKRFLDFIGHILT

[12] = target: cAMP-dependent protein kinase catalytic subunit beta (Homo sapiens, UniProt P22694)
[13] = target: 26S proteasome regulatory subunit 6B (Homo sapiens, UniProt P43686)
[14] = target: Rho-associated protein kinase 2 (Homo sapiens, UniProt O75116)
Chain of Rho-associated protein kinase 2 (O75116 whole entry): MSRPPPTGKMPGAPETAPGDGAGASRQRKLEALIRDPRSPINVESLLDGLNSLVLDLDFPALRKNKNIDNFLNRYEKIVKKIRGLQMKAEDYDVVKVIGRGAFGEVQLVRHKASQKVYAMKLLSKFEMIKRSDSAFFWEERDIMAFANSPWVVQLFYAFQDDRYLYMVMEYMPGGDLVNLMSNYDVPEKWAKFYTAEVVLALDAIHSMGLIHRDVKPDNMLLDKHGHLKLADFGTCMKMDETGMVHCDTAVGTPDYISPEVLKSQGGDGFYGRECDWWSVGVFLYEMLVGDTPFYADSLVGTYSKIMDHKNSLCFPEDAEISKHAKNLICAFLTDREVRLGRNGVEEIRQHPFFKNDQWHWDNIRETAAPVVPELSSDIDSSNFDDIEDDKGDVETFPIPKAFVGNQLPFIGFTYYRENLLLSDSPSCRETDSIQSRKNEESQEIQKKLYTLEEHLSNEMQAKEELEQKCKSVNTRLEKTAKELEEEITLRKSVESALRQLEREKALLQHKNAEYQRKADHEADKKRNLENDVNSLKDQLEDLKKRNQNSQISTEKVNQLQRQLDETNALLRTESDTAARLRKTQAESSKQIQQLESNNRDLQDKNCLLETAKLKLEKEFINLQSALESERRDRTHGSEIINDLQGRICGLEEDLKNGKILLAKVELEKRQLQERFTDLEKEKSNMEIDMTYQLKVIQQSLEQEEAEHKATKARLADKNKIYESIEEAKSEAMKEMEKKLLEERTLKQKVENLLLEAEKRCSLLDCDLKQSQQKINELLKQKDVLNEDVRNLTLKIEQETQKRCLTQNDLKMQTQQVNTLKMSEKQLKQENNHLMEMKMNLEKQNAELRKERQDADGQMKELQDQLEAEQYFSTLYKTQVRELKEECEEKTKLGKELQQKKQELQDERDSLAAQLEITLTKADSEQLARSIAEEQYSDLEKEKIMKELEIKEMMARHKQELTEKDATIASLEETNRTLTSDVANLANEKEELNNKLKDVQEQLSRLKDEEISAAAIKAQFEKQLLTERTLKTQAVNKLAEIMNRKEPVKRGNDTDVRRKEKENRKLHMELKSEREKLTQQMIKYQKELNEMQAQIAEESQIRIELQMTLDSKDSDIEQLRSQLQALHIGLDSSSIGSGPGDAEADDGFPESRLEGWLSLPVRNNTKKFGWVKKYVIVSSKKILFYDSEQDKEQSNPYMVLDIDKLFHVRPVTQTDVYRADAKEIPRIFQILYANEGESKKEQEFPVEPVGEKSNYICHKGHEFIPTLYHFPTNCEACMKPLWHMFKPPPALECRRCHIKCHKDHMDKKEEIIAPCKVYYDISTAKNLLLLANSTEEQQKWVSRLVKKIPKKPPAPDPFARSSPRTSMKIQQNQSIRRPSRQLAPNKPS

Measured: Kd

Chain of Calcium/calmodulin-dependent protein kinase kinase 2 (Q96RR4 whole entry): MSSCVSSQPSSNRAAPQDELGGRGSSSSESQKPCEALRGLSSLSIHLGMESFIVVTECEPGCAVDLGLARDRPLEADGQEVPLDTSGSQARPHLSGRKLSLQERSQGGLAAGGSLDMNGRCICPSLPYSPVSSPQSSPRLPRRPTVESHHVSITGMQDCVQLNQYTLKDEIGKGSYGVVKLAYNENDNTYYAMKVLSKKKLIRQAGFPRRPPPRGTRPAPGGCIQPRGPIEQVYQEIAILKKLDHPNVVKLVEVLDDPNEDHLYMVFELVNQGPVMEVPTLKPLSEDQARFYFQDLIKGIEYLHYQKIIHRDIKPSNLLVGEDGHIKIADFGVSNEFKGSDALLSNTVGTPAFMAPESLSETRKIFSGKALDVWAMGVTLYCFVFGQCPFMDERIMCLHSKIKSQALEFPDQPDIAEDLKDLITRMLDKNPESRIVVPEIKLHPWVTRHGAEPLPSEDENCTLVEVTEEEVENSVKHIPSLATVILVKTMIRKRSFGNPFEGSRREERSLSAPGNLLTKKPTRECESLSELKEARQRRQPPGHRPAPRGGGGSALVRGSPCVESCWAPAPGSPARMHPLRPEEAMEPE
Chain of Dual specificity protein kinase CLK1 (P49759 whole entry, canonical isoform): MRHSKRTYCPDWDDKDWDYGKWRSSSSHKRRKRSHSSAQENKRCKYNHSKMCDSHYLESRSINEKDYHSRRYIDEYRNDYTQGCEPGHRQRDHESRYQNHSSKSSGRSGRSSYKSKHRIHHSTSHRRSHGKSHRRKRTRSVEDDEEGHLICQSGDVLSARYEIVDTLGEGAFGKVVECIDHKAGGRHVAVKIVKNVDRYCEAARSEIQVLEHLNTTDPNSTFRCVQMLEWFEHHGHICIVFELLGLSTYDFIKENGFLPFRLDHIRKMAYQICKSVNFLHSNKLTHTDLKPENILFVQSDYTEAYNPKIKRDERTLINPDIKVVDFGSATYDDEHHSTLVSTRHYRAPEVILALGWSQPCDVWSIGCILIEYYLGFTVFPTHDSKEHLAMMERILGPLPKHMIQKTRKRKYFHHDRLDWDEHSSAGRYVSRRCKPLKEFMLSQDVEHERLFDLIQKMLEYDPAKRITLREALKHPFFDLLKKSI

Cn1cc(-c2cnc3ccc4ccc(CS(=O)(=O)NCc5ccccn5)cc4c(=O)c3c2)cn1 [MK-8033]
inactive: [1] > 30 µM | [2] > 30 µM | [3] > 30 µM | [4] > 30 µM | dCTP pyrophosphatase 1 > 30 µM | [5] > 30 µM | [6] > 30 µM | [7] > 30 µM | [8] > 30 µM | [9] > 30 µM | [10] > 30 µM | [11] > 30 µM | [12] > 30 µM | [13] > 30 µM | [14] > 30 µM

CC(=O)c1cnc2ccc(-c3cc(Cl)c(O)c(Cl)c3)nc2c1N[C@H]1CC[C@H](CN(C)C)CC1
active: [1] 0.126 µM | [2] 0.011 µM | [6] 0.087 µM
0.088 µM: [9]
inactive: [4] > 30 µM | dCTP pyrophosphatase 1 > 30 µM | [8] > 30 µM | [10] > 30 µM | [11] > 30 µM | [12] > 30 µM | [13] > 30 µM | [14] > 30 µM

CC(C)(C)c1nc(-c2cccc(NS(=O)(=O)c3c(F)cccc3F)c2F)c(-c2ccnc(N)n2)s1 [DABRAFENIB]
active: [5] 1.45 µM
inactive: [1] > 30 µM | [2] > 30 µM | [3] > 30 µM | [4] > 30 µM | dCTP pyrophosphatase 1 > 30 µM | [7] > 30 µM | [8] > 30 µM | [9] > 30 µM | [11] > 30 µM | [13] > 30 µM | [14] > 30 µM

C[C@@H](N)c1ccc(C(=O)Nc2ccnc3[nH]ccc23)cc1 [Y-39983]
inactive: [1] > 30 µM | [3] > 30 µM | [4] > 30 µM | dCTP pyrophosphatase 1 > 30 µM | [5] > 30 µM | [7] > 30 µM | [8] > 30 µM | [11] > 30 µM | [12] > 30 µM | [13] > 30 µM
active: [2] 0.018 µM | [6] 1.1 µM | [9] 0.946 µM

O=C(Nc1cc(C(F)(F)F)cc(C(F)(F)F)c1)c1cc(Cl)ccc1O [IMD-0354]
inactive: [1] > 30 µM | [2] > 30 µM | [3] > 30 µM | [4] > 30 µM | dCTP pyrophosphatase 1 > 30 µM | [5] > 30 µM | [7] > 30 µM | [8] > 30 µM | [9] > 30 µM | [10] > 30 µM | [11] > 30 µM | [12] > 30 µM | [13] > 30 µM | [14] > 30 µM

Cc1nc(NC(=O)N2CCC[C@H]2C(N)=O)sc1-c1ccnc(C(C)(C)C(F)(F)F)c1 [ALPELISIB]
inactive: [1] > 30 µM | [2] > 30 µM | [3] > 30 µM | [4] > 30 µM | dCTP pyrophosphatase 1 > 30 µM | [5] > 30 µM | [6] > 30 µM | [7] > 30 µM | [8] > 30 µM | [9] > 30 µM | [10] > 30 µM | [12] > 30 µM | [13] > 30 µM | [14] > 30 µM

CNC(=O)c1nn(C)c2c1C(C)(C)Cc1cnc(Nc3ccc(N4CCN(C)CC4)cc3)nc1-2 [MILCICLIB]
active: [2] 0.008 µM | [3] 0.236 µM | dCTP pyrophosphatase 1 1.59 µM | [8] 4.02 µM
inactive: [4] > 30 µM | [5] > 30 µM | [6] > 30 µM | [7] > 30 µM | [9] > 30 µM | [10] > 30 µM | [11] > 30 µM | [12] > 30 µM | [13] > 30 µM | [14] > 30 µM

Cc1cnc(NC(=O)Nc2cc(Br)c(C)cc2OC[C@@H]2CNCCO2)cn1 [RABUSERTIB]
inactive: [1] > 30 µM | [2] > 30 µM | [3] > 30 µM | [4] > 30 µM | dCTP pyrophosphatase 1 > 30 µM | [5] > 30 µM | [6] > 30 µM | [7] > 30 µM | [8] > 30 µM | [9] > 30 µM | [10] > 30 µM | [12] > 30 µM | [13] > 30 µM | [14] > 30 µM

Cc1nc(Nc2n[nH]c3c2CN(C(=O)N[C@H](CN(C)C)c2ccccc2)C3(C)C)c2sccc2n1 [PF-03758309]
inactive: [3] > 30 µM | [4] > 30 µM | dCTP pyrophosphatase 1 > 30 µM | [5] > 30 µM | [7] > 30 µM | [8] > 30 µM | [9] > 30 µM | [10] > 30 µM | [11] > 30 µM | [13] > 30 µM | [14] > 30 µM
active: [1] 2.86 µM | [2] 0.09 µM | [6] 2.09 µM

CNC(=O)c1cc(Oc2ccc(NC(=O)Nc3cc(C(C)(C)C)nn3-c3ccc4ncccc4c3)c(F)c2)ccn1 [REBASTINIB]
inactive: [1] > 30 µM | [3] > 30 µM | [4] > 30 µM | dCTP pyrophosphatase 1 > 30 µM | [6] > 30 µM | [7] > 30 µM | [8] > 30 µM | [11] > 30 µM | [12] > 30 µM | [13] > 30 µM | [14] > 30 µM
active: [2] 2.14 µM | [9] 2.71 µM | [10] 2.76 µM

CCOc1cc2ncc(C#N)c(Nc3ccc(F)c(Cl)c3)c2cc1NC(=O)/C=C/CN(C)C [PELITINIB]
inactive: [2] > 30 µM | [4] > 30 µM | dCTP pyrophosphatase 1 > 30 µM | [5] > 30 µM | [6] > 30 µM | [7] > 30 µM | [9] > 30 µM | [10] > 30 µM | [11] > 30 µM | [12] > 30 µM | [13] > 30 µM | [14] > 30 µM
active: [1] 1.39 µM | [3] 3.88 µM

NC(=O)Nc1cc(-c2cccc(F)c2)sc1C(=O)N[C@H]1CCCNC1 [AZD-7762]
inactive: [1] > 30 µM | [2] > 30 µM | [3] > 30 µM | dCTP pyrophosphatase 1 > 30 µM | [6] > 30 µM | [7] > 30 µM | [8] > 30 µM | [10] > 30 µM | [11] > 30 µM | [12] > 30 µM | [13] > 30 µM | [14] > 30 µM
active: [9] 0.035 µM

FC(F)(F)c1ccc(/C=C/c2nc(COc3ccc(CCCCn4ccnn4)cc3)co2)cc1 [MUBRITINIB]
inactive: [1] > 30 µM | [2] > 30 µM | [3] > 30 µM | [4] > 30 µM | dCTP pyrophosphatase 1 > 30 µM | [5] > 30 µM | [6] > 30 µM | [7] > 30 µM | [8] > 30 µM | [9] > 30 µM | [10] > 30 µM | [12] > 30 µM | [13] > 30 µM | [14] > 30 µM
